According to patent US20100004159A1, “SUBSTITUTED IMIDAZOLONE DERIVATIVES, PREPARATIONS AND USES” (GENFIT, priority 2006, published 2010):

Columns and labels:
ApoE2/E2 mouse = assay: Plasma lipids and cholesterol distribution in dyslipidemic ApoE2/E2 mouse; format: in vivo; settings: for total cholesterol level / triglyceride level: 7 days per os
Experimental: The hypolipemic properties of the compounds according to the invention were evaluated in vivo by assaying plasma lipids and by an analysis of the gene expression of PPARs target genes, in the liver after a treatment of the dyslipidemic E2/E2 mice with the compounds according to the invention.
The murine model used is the ApoE2/E2 mouse, a transgenic mouse having human apolipoprotein E isoform E2 (Sullivan P M et al., 1998). In human, this apolipoprotein, a constituent of the low and the very low density lipoproteins (LDL-VLDL), exists in three isoforms E2, E3, and E4. The E2 form has a mutation affecting the amino acid of position 158, which considerably weakens the affinity of this protein for the receptors to LDL., the VLDL clearance is nearly non-existent.
The ApoE2/E2 transgenic mice were kept on a 12 hour/12 hour light/dark cycle at a constant temperature of 20±3° C. After a one week acclimatization period, the mice were weighed and divided into groups of 5 animals selected so as to render uniform the distribution of their body weights and their plasma lipid levels, determined before the experiment. The tested compounds were suspended in carboxymethylcellulose (Sigma C4888) and administered by intra-gastric tube feeding, once a day for 7 days at the chosen dose. The animals had free access to food and water. At the end of the experiment, the animals were anesthetized after a 4 hour fast, a blood sample was taken using anticoagulant (EDTA), then the mice were weighed and euthanized. The plasma was separated by centrifugation at 3000 rotations/minute for 20 minutes. The samples were kept at +4° C.
Plasma lipid concentrations (total cholesterol and triglycerides) were measured by enzymatic assays (bioMerieux-Lyon-France) according to the provider's recommendations.
The different lipid fractions (VLDL, LDL,HDL) of the plasma were separated by gel-filtration chromatography. The concentrations of cholesterol of each fraction were then measured by enzymatic assays (bioMerieux-Lyon-France) according to the provider's recommendations.

[1] = molecular target: T1, angiotensin II AT1 receptor (Oryctolagus cuniculus, UniProt P34976); assay: Ex vivo agonist/antagonist activity on isolated rabbit thoracic aorta rings; settings: 0.3, 3 and 30 μM; for agonist activity (contraction): non-treated rabbit thoracic aorta; for antagonist activity (inhibition of contractile response to angiotensin II): rabbit thoracic aorta previously exposed to angiotensin II 0.003 μM
T1 construct: tissue CEREP; host or cells: rabbit thoracic aorta rings
T1 sequence (P34976 1-359): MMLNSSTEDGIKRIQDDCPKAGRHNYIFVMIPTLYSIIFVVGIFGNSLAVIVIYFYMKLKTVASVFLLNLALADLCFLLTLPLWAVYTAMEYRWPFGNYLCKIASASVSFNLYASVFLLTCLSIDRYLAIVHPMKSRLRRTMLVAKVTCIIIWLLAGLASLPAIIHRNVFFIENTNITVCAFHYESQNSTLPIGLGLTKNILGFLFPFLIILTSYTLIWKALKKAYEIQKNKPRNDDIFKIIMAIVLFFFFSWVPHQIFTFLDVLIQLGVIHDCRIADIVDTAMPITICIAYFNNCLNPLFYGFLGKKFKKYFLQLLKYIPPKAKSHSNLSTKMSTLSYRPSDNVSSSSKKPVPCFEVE
Experimental: This activity is either agonist or antagonist and was evaluated ex vivo on isolated organs. Agonist activity corresponds to tissue contraction. Antagonist activity corresponds to tissue dilatation.
The ex vivo test was performed at the CEREP (Celle L'Evescault, France (86)) following a protocol based on Pendleton et al. (Pendleton R G et al.,1989). Rabbit thoracic aorta rings with intact endothelium were suspended in baths for organs containing an oxygenated physiologic saline solution (95% O2 and 5% CO2) and preheated (37° C.) having the following composition (mM): NaCl 118.0, KCl 4.7, MgSO4 1.2, CaCl2 2.5, KH2PO4 1.2, NaHCO3 25.0, and glucose 11.0 (pH 7.4).
Benextramine (1 μM), propranolol (1 μM), pyrilamine (1 μM), atropine (1 μM), methysergide (1 μM), and captopril (0.1 μM) were also used in all carried out experiments to block respectively α-adrenergic, β-adrenergic, histaminic H1 muscarinic, and 5-HT2 receptors as well as to prevent peptide degradation. The tissues were bound to a force sensor suitable for isometric tension recording. They were stretched to a resting tension of 4 g, then stabilized for 60 minutes. During the stabilization, they were washed several times and the tension was adjusted. The experiments were carried out using semi-automatic systems of isolated organs with eight organ baths and multichannel data acquisition.
The tissues were exposed to a submaximal concentration of the reference agonist (angiotensin II at 0.003 μM) to verify the response and obtain a control contractile response.
After several washing operations and after having recovered the basal tone, the tissues were exposed to increasing concentrations of compounds according to the invention or the same agonist. The different concentrations were added cumulatively, each one was left in contact with the tissues until a stable response was reached and for a maximum of 30 minutes. If an agonist type response (contraction) was registered, the reference antagonist (Saralasine at 0.01 μM) was tested regarding the highest concentration of the compounds according to the invention to confirm the involvement of the AT1 receptors in the response.
After stabilization of the contraction induced by angiotensin II, increasing concentrations of compounds according to the invention or of the reference antagonist (Saralasine) were added cumulatively. Each concentration was left in contact with the tissues until a stable response was observed and for a maximum of 30 minutes.
The inhibiting effect of the compounds according to the invention on the contraction induced by the angiotensin 11 indicates antagonist activity on AT1 receptors.

[2] = test system: SHR rats (spontaneous hypertensive rats); assay: SHR rats treated 14 days: plasma triglycerides, arterial pressure, response to angiotensin II; format: in vivo, rat
Experimental: SHR rats (spontaneous hypertensive rats) (male sex—300-320 g—16-weeks old—Charles River France) were kept on a light/dark cycle of 12/12 hours at a constant temperature of 20±3° C. The compounds according to the invention being tested were suspended in carboxymethylcellulose (Sigma c4888) and administered to the animals by intra-gastric gavage, once a day for 14 days at the chosen doses. The animals had free access to food and water.
At the end of the experiment, after a 5-hour fast, the animals were anesthetized for surgery with pentobarbital (50 mg/kg). A catheter treated with heparin was placed in the carotid artery to measure arterial pressure. A second catheter was placed in the jugular vein to administer angiotensin II. Arterial pressure was measured and recorded at basal tone for 15 minutes. At this stage, the average arterial pressure of the control animals is compared to that of the animals having received the compounds according to the invention. After 15 minutes, three successive intravenous administrations of angiotensin II (50 ng/kg) were performed to evaluate the response to angiotensin II of animals treated with the compounds according to the invention.
At the end of the arterial pressure measurements, a blood sample was taken using anticoagulant (EDTA), then the animals were euthanized. The plasma was separated by centrifugation at 3000 rotations/minute for 20 minutes. The samples were kept at +4° C.
Plasma total concentrations of cholesterol, triglycerides, free fatty acids, and glucose were measured by enzymatic assays (bioMerieux-Lyon-France and Wako-Japan) according to the provider's recommendations.

[3] = 7-day treatment, 10, 30 and 100 mpk

| agonist activity (contraction) [1] | melting point [°C] | Compound | total cholesterol level (ApoE2/E2 mouse; 25, 50, 100 and 200 mpk) | triglyceride level (ApoE2/E2 mouse; 25, 50, 100 and 200 mpk) | antagonist activity (inhibition of contractile response to angiotensin II) [1] | arterial pressure before administrations of angiotensin II ([2]; 14 days of treatment, 150 mpk) | plasma triglyceride rate ([2]; 14 days of treatment, 150 mpk, intra-gastric) | hypertension induced by angiotensin II (difference of arterial pressure) ([2]; 14 days of treatment, 150 mpk, three intravenous administrations of angiotensin II 50 ng/kg) | HDL-cholesterol fraction (ApoE2/E2 mouse; [3]) | cholesterol in VLDL and LDL fractions (ApoE2/E2 mouse; [3]) | total cholesterol level (ApoE2/E2 mouse; 10, 30 or 100 mpk) | triglyceride level (ApoE2/E2 mouse; 10, 30 or 100 mpk) | hypertension induced by angiotensin II (difference of arterial pressure) ([2]; chronic treatment, 100 mpk, repeated administrations of angiotensin II) |
| --- | --- | --- | --- | --- | --- | --- | --- | --- | --- | --- | --- | --- | --- |
| do not induce contraction | 169 to 171 | CCCCC1=NC2(CCCC2)C(=O)N1Cc1ccc(-c2cccc(OC(C)(C)C(=O)O)c2)cc1 [Compound 1, 2-butyl-1-[(3′-((1-carboxy-1,1-dimethylmethyl)oxy)biphenyl-4-yl)methyl]-4-spirocyclopentyl-1H-imidazol-5(4H)-one] | remarkable dose-dependently decrease | remarkable dose-dependently decrease | inhibiting effect of the contractile response of the reference agonist | antihypertensive effect | unexpectedly decreased | significant antagonist effect on angiotensin II | – | – | – | – | – |
| do not induce contraction | 160 to 162 | CCCCC1=NC2(CCCCC2)C(=O)N1Cc1ccc(-c2cccc(OC(C)(C)C(=O)O)c2)cc1 [Compound 21, 2-butyl-1-[(3′-((1-carboxy-1,1-dimethylmethyl)oxy)biphenyl-4-yl)methyl]-4-spirocyclohexyl-1H-imidazol-5(4H)-one] | – | – | inhibiting effect of the contractile response of the reference agonist | – | – | – | significant increase | significant decrease | remarkable dose-dependently decrease | remarkable dose-dependently decrease | significant antagonist effect on angiotensin II |
